Test results from patent publication US20260250290A1 (BRISTOL-MYERS SQUIBB COMPANY, priority 2023, published 2026).
Counter-ions that a name gives are not always drawn.

Biological target: T1, SGK1 (Homo sapiens, UniProt O00141)
T1 sequence (O00141 1-431): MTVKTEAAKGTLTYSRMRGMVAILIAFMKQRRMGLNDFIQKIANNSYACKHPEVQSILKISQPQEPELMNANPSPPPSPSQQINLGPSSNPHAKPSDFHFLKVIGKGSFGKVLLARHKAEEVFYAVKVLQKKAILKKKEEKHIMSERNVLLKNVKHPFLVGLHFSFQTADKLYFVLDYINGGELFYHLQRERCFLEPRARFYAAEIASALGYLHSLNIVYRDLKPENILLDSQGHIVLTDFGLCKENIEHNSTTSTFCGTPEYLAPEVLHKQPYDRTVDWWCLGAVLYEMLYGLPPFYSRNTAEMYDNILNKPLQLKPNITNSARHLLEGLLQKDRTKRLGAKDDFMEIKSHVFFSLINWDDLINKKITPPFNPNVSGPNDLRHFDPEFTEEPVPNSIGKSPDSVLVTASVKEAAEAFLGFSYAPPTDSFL
Assay: SGK1 inhibition Assay B (Echo mass spectrometry of phosphorylated peptide product)
Type: biochemical
Conditions: 60 min at room temperature

| SMILES | IC50 [nM] |
| --- | --- |
| CCOC1=C(C(=O)N[C@@H]2CCCN(c3cc(C4=CCN(C(C)=O)C4)n4ncnc(N)c34)C2)CN(c2ccc(OC)cc2)C1=O [Example 755, (R)-N-(1-(7-(1-acetyl-2,5-dihydro-1H-pyrrol-3-yl)-4-aminopyrrolo[2,1-f][1,2,4]triazin-5-yl)piperidin-3-yl)-4-ethoxy-1-(4-methoxyphenyl)-5-oxo-2,5-dihydro-1H-pyrrole-3-carboxamide] | 21 |
| CC(C)c1nc(O[C@@H]2C[C@H]3CC[C@@H](C2)N3C)c(C(=O)N[C@@H]2CCCN(c3cc(-c4ccc(=O)n(CC(F)F)c4)n4ncnc(N)c34)C2)s1 [Example 951, N—((R)-1-(4-Amino-7-(1-(2,2-difluoroethyl)-6-oxo-1,6-dihydropyridin-3-yl)pyrrolo[2,1-f][1,2,4]triazin-5-yl)piperidin-3-yl)-2-isopropyl-4-(((1R,3s,5S)-8-methyl-8-azabicyclo[3.2.1]octan-3-yl)oxy)thiazole-5-carboxamide] | 3 |
| Cc1nc(O[C@H]2CC[C@]3(CCCN3)CC2)c(C(=O)N[C@@H]2CCCN(c3cc(-c4ccc(C(N)=O)c(F)c4)n4ncnc(N)c34)C2)s1 [Example 930, 4-(((5S,8r)-1-azaspiro[4.5]decan-8-yl)oxy)-N—((R)-1-(4-amino-7-(4-carbamoyl-3-fluorophenyl)pyrrolo[2,1-f][1,2,4]triazin-5-yl)piperidin-3-yl)-2-methylthiazole-5-carboxamide, TFA salt] | 1 |
| Cc1nc(O[C@H]2CC[C@@H](CNCC(C)(C)C)CC2)c(C(=O)N[C@@H]2CCCN(c3cc(-c4ccc(C(N)=O)c(F)c4)n4ncnc(N)c34)C2)s1 [Example 945, N—((R)-1-(4-Amino-7-(4-carbamoyl-3-fluorophenyl)pyrrolo[2,1-f][1,2,4]triazin-5-yl)piperidin-3-yl)-2-methyl-4-(((cis)-4-((neopentylamino)methyl)cyclohexyl)oxy)thiazole-5-carboxamide] | 4 |
| CN1CCN(c2nccc(C(=O)N[C@@H]3CCCN(c4cc(-c5cc(F)c(-n6cnnn6)c(F)c5)n5ncnc(N)c45)C3)n2)CC1 [Example 854] | 1 |
| CN1C2CCC1CC(Oc1cc(Cl)sc1C(=O)NC1CCCN(c3cc(-c4cnn(C(F)F)c4)n4ncnc(N)c34)C1)C2 [Example 836, N-((R)-1-(4-amino-7-(1-(difluoromethyl)-1H-pyrazol-4-yl)pyrrolo[2,1-f][1,2,4]triazin-5-yl)piperidin-3-yl)-5-chloro-3-(((1R,3s,5S)-8-methyl-8-azabicyclo[3.2.1]octan-3-yl)oxy)thiophene-2-carboxamide] | 2 |
| CC(C)N1CC2(CN(c3cccc(C(=O)N[C@@H]4CCCN(c5cc(-c6cc(F)c(-n7cnnn7)c(F)c6)n6ncnc(N)c56)C4)n3)C2)C1 [Example 826, (R)-N-(1-(4-amino-7-(3,5-difluoro-4-(1H-tetrazol-1-yl)phenyl)pyrrolo[2,1-f][1,2,4]triazin-5-yl)piperidin-3-yl)-6-(6-isopropyl-2,6-diazaspiro[3.3]heptan-2-yl)picolinamide] | 3 |
| CNC(=O)c1ccc(-c2cc(N3CCC[C@@H](NC(=O)c4cccc(N5CC6(C5)CN(C(C)C)C6)n4)C3)c3c(N)ncnn23)cn1 [Example 820] | 21 |
| Cc1nc(OC2CCC(N3CCC3)CC2)c(C(=O)N[C@@H]2CCCN(c3cc(-c4ccc(C(N)=O)c(F)c4)n4ncnc(N)c34)C2)s1 (single isomer, unassigned) [Example 943] | 2 |
| CN1CCN(c2nccc(C(=O)N[C@@H]3CCCN(c4cc(-c5cnc(-n6cnnn6)c(F)c5)n5ncnc(N)c45)C3)n2)CC1 [Example 858] | 4 |
| CC(C)N1CC2(CN(c3cccc(C(=O)N[C@@H]4CCCN(c5cc(-c6ccc(C#N)nc6)n6ncnc(N)c56)C4)n3)C2)C1 [Example 817, (R)-N-(1-(4-amino-7-(6-cyanopyridin-3-yl)pyrrolo[2,1-f][1,2,4]triazin-5-yl)piperidin-3-yl)-6-(6-isopropyl-2,6-diazaspiro[3.3]heptan-2-yl)picolinamide] | 14 |
| CC(=O)c1ccc(-c2cc(N3CCC[C@@H](NC(=O)c4cccc(N5CC6(C5)CN(C(C)C)C6)n4)C3)c3c(N)ncnn23)cn1 [Example 831, (R)-N-(1-(7-(6-acetylpyridin-3-yl)-4-aminopyrrolo[2,1-f][1,2,4]triazin-5-yl)piperidin-3-yl)-6-(6-isopropyl-2,6-diazaspiro[3.3]heptan-2-yl)picolinamide] | 22 |
| CN1[C@@H]2CC[C@H]1C[C@H](Oc1cc(Cl)sc1C(=O)N[C@@H]1CCCN(c3cc(-c4ccc5c(c4)COC5=O)n4ncnc(N)c34)C1)C2 [Example 924, N—((R)-1-(4-amino-7-(1-oxo-1,3-dihydroisobenzofuran-5-yl)pyrrolo[2,1-f][1,2,4]triazin-5-yl)piperidin-3-yl)-5-chloro-3-(((1R,3s,5S)-8-methyl-8-azabicyclo[3.2.1]octan-3-yl)oxy)thiophene-2-carboxamide] | 0.9 |
| CC(=O)c1ccc(-c2cc(N3CCC[C@@H](NC(=O)c4sc(C)cc4O[C@@H]4C[C@H]5CC[C@@H](C4)N5C)C3)c3c(N)ncnn23)cn1 [Example 846, N-((R)-1-(7-(6-acetylpyridin-3-yl)-4-aminopyrrolo[2,1-f][1,2,4]triazin-5-yl)piperidin-3-yl)-5-methyl-3-(((1R,3s,5S)-8-methyl-8-azabicyclo[3.2.1]octan-3-yl)oxy)thiophene-2-carboxamide] | 16 |

More lines, now with the values ahead:

| IC50 [nM] | SMILES |
| --- | --- |
| 2 | Nc1ncnn2c(-c3ccc(=O)n(CC(F)F)n3)cc(N3CCC[C@@H](NC(=O)c4sc(Cl)cc4O[C@@H]4C[C@H]5CCC[C@@H](C4)N5CCO)C3)c12 [Example 972, N—((R)-1-(4-amino-7-(1-(2,2-difluoroethyl)-6-oxo-1,6-dihydropyridazin-3-yl)pyrrolo[2,1-f][1,2,4]triazin-5-yl)piperidin-3-yl)-5-chloro-3-(((1R,3s,5S)-9-(2-hydroxyethyl)-9-azabicyclo[3.3.1]nonan-3-yl)oxy)thiophene-2-carboxamide] |
| 1 | Cc1nc(O[C@H]2CC[C@@H](NC(C)C)CC2)c(C(=O)N[C@@H]2CCCN(c3cc(C4=CC(=O)OC4)n4ncnc(N)c34)C2)s1 [Example 977, N—((R)-1-(4-amino-7-(5-oxo-2,5-dihydrofuran-3-yl)pyrrolo[2,1-f][1,2,4]triazin-5-yl)piperidin-3-yl)-4-(((1s,4S)-4-(isopropylamino)cyclohexyl)oxy)-2-methylthiazole-5-carboxamide] |
| 3 | Cc1nc(OC2CC(C)(C)N(C)C(C)(C)C2)c(C(=O)N[C@@H]2CCCN(c3cc(-c4ccc(-n5cnnn5)c(F)c4)n4ncnc(N)c34)C2)s1 [Example 965, (R)—N-(1-(4-amino-7-(3-fluoro-4-(1H-tetrazol-1-yl)phenyl)pyrrolo[2,1-f][1,2,4]triazin-5-yl)piperidin-3-yl)-2-methyl-4-((1,2,2,6,6-pentamethylpiperidin-4-yl)oxy) thiazole-5-carboxamide] |
| 2 | CC(=O)N1CC=C(c2cc(N3CCC[C@@H](NC(=O)c4sc(Cl)cc4OC4C[C@@H]5CN(C)C[C@@H]5C4)C3)c3c(N)ncnn23)C1 (stereo partly drawn) [Example 958, N—((R)-1-(7-(1-acetyl-2,5-dihydro-1H-pyrrol-3-yl)-4-aminopyrrolo[2,1-f][1,2,4]triazin-5-yl)piperidin-3-yl)-5-chloro-3-(((3aR,6aS)-2-methyloctahydrocyclopenta[c]pyrrol-5-yl)oxy) thiophene-2-carboxamide] |
| 1.2 | [2H]C([2H])([2H])N(C1CCC(Oc2nc(C)sc2C(=O)N[C@@H]2CCCN(c3cc(-c4ccnc(OC)n4)n4ncnc(N)c34)C2)CC1)C([2H])([2H])[2H] (stereo partly drawn) [Example 1032, (R)—N-(1-(4-amino-7-(2-methoxypyrimidin-4-yl)pyrrolo[2,1-f][1,2,4]triazin-5-yl)piperidin-3-yl)-4-((4-(bis(methyl-d3)amino)cyclohexyl)oxy)-2-methylthiazole-5-carboxamide] |
| 1.7 | Cc1nc(OC2CCC(N3CCC3)CC2)c(C(=O)N[C@@H]2CCCN(c3cc(-c4ccc(C(N)=O)c(F)n4)n4ncnc(N)c34)C2)s1 (stereo partly drawn) [Example 1041, (R)—N-(1-(4-amino-7-(5-carbamoyl-6-fluoropyridin-2-yl)pyrrolo[2,1-f][1,2,4]triazin-5-yl)piperidin-3-yl)-4-((4-(azetidin-1-yl)cyclohexyl)oxy)-2-methylthiazole-5-carboxamide] |
| 0.9 | COc1cc(-c2cc(N3CCC[C@@H](NC(=O)c4sc(C)nc4OC4CCC(N5CCC5)CC4)C3)c3c(N)ncnn23)ccn1 (stereo partly drawn) [Example 1038] |
| 0.7 | Cc1nc(OC2CCC(N3CC(C)C3)CC2)c(C(=O)N[C@@H]2CCCN(c3cc(C4=CC(=O)OC4)n4ncnc(N)c34)C2)s1 (stereo partly drawn) [Example 999, (R)-N-(1-(4-amino-7-(5-oxo-2,5-dihydrofuran-3-y1)pyrrolo[2,1-f] [1,2,4]triazin-5-yl)piperidin-3-y1)-2-methyl-4-((4-(3-methylazetidin-1-yl)cyclohexyl)oxy)thiazole-5-carboxamide] |
| 1.3 | CCC1=C(c2cc(N3CCC[C@@H](NC(=O)c4sc(C)nc4OC4CCC(NC5CC5)CC4)C3)c3c(N)ncnn23)COC1=O (stereo partly drawn) [Example 1022, (R)-N-(1-(4-amino-7-(4-ethyl-5-oxo-2,5-dihydrofuran-3-yl)pyrrolo[2,1-f][1,2,4]triazin-5-yl)piperidin-3-y1)-4-((4-(cyclopropylamino)cyclohexyl)oxy)-2-methylthiazole-5-carboxamide] |
| 37 | CC(=O)N1CC=C(c2cc(N3CCC[C@@H](NC(=O)c4sc(Cl)cc4OC4CC5COCC(C4)N5CCO)C3)c3c(N)ncnn23)C1 (stereo partly drawn) [Example 986] |
